In the test the test system is Stachybotrys chartarum. Description: Antifungal activity against Stachybotrys charatum assessed as zone of inhibition at 80 ug after 24 hrs. The format is functional.

Active and inactive are the calls of the source. The rule behind the calls is not given here. Starred links: 1 amine or outer side, 2 acyl side, 3 side chain; linkers in the order of their positions; H or OH if unused. Positions of bridges follow the written chain, without caps; N, C: chain ends. Non-standard residues stand in square brackets, D forms with d. Residues, ends and D or L forms follow the SMILES beside them. X1 = CC(C)CCCCCCCCC[C@H](CC(=O)[*:1])O[*:2]

On to `CC(C)CCCCCCCCC[C@@H]1CC(=O)N[C@@H](CCC(=O)O)C(=O)N[C@@H](CC(C)C)C(=O)N[C@H](CC(C)C)C(=O)N[C@@H](C(C)C)C(=O)N[C@@H](CC(=O)O)C(=O)N[C@H](CC(C)C)C(=O)N[C@@H](CC(C)C)C(=O)O1` (EL[dL]VD[dL]L; linker N-C via X1), for which the outcome was inactive.

(Values after ChEMBL document CHEMBL1155619, “Kurstakins: a new class of lipopeptides isolated from Bacillus thuringiensis” (2000).)
